Data reported in ChEMBL document CHEMBL1201862, “PubChem BioAssay data set” (2004).
The source made the active and inactive calls.

Key:
[1] = target: Dual specificity tyrosine-phosphorylation-regulated kinase 1A (Rattus norvegicus, UniProt Q63470); type: biochemical, Homo sapiens
[2] = target: Dual specificity protein kinase CLK1 (Homo sapiens, UniProt P49759); assay: CLK1 kinase inhibitors, off-target check, dose response, selectivity assay for Dyrk1A inhibitor project, biochemical, cherry-picked samples (AID 588811)
HeLa = assay: HeLa cell cytotoxicity, dose response, cytotoxicity control for MITF activator project, CellTiter-Glo luminescence, cherry-pick samples (AID 540259); type: functional, cell-based; conditions: Homo sapiens
[3] = target: Beta-2 adrenergic receptor (Homo sapiens, UniProt P07550); assay: beta2AR agonists driving receptor internalization, dose response, cell-based, FAP fluorogen, flow cytometry, cherry pick 1 (AID 588763); type: functional
Streptokinase A = target: T1, Streptokinase A (Streptococcus pyogenes serotype M1, UniProt P10520); assay: S. pyogenes streptokinase expression inhibitors, potency, dose response, plasminogen activation absorbance, OD405 (AID 1914); type: functional, Streptococcus pyogenes M1 GAS;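 note: secreted streptokinase activity via plasminogen activation per viability signal from cell pellet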
T1 sequence (P10520 whole entry): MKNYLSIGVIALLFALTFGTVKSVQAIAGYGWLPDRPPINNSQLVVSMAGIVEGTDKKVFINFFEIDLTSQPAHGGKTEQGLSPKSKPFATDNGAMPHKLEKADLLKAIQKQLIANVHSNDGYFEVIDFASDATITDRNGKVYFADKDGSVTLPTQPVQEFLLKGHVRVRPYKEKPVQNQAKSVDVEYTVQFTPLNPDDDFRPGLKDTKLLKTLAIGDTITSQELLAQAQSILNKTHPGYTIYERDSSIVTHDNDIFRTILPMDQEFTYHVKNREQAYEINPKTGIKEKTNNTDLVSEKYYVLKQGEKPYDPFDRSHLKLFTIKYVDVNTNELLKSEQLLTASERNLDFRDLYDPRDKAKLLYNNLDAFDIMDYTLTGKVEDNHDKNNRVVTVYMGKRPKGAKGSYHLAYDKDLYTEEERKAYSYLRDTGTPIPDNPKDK

Streptococcus = assay: Group A Streptococcus viability loss, dose response, counter-screen for streptokinase expression inhibitor project, luminescence, BacTiterGlo (AID 1915); type: functional, organism-based; conditions: Streptococcus;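 note: potency for reduction of bacterial viability or growth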
[4] = tested on: Streptococcus sp. 'group A'; assay: growth inhibition of control SK(-) GAS strain, dose response, counter-screen for streptokinase expression inhibitor project, luminescence, kanamycin, BacTiterGlo, confirmation (AID 1900); type: functional, organism-based; conditions: Streptococcus sp. 'group A'
Vero = Vero cell cytotoxicity, cytotoxicity control for flavivirus capping enzyme inhibitors (AID 588742); type: functional; conditions: Chlorocebus sabaeus
Caspase-3 = target: T2, Caspase-3 (Homo sapiens, UniProt P42574); assay: SAR Analysis of small molecule inhibitors of Sentrin-specific proteases (SENPs) using a Caspase-3 Selectivity assay. [Related pubchem assays (depositor defined):AID2540, AID2599, AID434973, AID489001]; type: functional
T2 sequence (P42574 whole entry): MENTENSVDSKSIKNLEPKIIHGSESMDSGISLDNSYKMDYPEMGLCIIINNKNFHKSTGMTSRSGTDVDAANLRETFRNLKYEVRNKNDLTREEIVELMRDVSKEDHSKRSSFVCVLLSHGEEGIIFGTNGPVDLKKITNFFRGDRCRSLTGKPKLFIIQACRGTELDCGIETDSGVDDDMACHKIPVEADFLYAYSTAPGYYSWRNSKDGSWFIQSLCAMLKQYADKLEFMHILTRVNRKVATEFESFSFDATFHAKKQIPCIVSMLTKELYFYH

[5] = target: T3, Sentrin-specific protease 8 (Homo sapiens, UniProt Q96LD8); assay: SENP8 protease inhibitors, SAR follow-up, biochemical, luminescence (AID 504501); type: functional
T3 sequence (Q96LD8 whole entry): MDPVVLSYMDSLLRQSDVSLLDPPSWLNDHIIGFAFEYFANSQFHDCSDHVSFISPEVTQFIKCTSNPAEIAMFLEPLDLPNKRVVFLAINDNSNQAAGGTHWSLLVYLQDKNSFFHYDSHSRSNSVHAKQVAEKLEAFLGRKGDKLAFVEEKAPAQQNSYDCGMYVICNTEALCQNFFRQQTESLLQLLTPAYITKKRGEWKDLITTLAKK

[6] = target: T4, Sentrin-specific protease 6 (Homo sapiens, UniProt Q9GZR1); assay: SAR Analysis of small molecule inhibitors of Sentrin-specific protease 6 (SENP6) using a Luminescent assay. [Related pubchem assays (depositor defined):AID2582, AID2599]; type: functional
T4 sequence (Q9GZR1 whole entry): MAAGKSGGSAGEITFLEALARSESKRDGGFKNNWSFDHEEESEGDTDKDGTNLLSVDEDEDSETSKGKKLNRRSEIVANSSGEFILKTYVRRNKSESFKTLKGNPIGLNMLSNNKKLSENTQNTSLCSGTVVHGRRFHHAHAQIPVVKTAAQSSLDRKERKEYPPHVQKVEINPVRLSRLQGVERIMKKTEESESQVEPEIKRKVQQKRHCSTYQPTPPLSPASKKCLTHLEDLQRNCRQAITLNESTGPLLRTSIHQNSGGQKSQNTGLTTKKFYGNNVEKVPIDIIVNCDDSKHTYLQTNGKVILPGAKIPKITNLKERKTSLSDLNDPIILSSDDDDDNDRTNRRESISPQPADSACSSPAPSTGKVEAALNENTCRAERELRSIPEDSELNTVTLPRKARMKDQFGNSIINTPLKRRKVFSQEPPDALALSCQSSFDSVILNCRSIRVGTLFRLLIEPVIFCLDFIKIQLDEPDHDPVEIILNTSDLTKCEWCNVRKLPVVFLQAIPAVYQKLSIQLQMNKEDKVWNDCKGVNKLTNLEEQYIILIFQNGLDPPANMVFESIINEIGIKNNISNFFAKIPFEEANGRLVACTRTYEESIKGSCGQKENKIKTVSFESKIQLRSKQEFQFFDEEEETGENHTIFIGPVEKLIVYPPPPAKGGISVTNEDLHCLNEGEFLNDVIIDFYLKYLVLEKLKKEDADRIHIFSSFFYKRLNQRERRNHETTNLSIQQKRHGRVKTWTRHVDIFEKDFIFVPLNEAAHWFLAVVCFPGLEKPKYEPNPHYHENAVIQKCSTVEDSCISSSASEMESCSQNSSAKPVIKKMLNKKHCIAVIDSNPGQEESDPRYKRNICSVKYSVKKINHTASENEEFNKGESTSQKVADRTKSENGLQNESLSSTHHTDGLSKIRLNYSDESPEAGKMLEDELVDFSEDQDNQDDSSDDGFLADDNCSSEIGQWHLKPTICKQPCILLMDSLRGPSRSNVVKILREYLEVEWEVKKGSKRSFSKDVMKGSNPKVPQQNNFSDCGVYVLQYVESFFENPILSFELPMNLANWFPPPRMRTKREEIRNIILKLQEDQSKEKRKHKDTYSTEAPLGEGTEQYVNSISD

[7] = target: Ras and Rab interactor 1/Tyrosine-protein kinase ABL1 (Homo sapiens, UniProt P00519+Q13671); type: functional;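 note: biochemical TR-FRET dose-response test measuring inhibition of binding between Rin1 and Abl proteins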
Chain of Ras and Rab interactor 1/Tyrosine-protein kinase ABL1 (P00519 whole entry): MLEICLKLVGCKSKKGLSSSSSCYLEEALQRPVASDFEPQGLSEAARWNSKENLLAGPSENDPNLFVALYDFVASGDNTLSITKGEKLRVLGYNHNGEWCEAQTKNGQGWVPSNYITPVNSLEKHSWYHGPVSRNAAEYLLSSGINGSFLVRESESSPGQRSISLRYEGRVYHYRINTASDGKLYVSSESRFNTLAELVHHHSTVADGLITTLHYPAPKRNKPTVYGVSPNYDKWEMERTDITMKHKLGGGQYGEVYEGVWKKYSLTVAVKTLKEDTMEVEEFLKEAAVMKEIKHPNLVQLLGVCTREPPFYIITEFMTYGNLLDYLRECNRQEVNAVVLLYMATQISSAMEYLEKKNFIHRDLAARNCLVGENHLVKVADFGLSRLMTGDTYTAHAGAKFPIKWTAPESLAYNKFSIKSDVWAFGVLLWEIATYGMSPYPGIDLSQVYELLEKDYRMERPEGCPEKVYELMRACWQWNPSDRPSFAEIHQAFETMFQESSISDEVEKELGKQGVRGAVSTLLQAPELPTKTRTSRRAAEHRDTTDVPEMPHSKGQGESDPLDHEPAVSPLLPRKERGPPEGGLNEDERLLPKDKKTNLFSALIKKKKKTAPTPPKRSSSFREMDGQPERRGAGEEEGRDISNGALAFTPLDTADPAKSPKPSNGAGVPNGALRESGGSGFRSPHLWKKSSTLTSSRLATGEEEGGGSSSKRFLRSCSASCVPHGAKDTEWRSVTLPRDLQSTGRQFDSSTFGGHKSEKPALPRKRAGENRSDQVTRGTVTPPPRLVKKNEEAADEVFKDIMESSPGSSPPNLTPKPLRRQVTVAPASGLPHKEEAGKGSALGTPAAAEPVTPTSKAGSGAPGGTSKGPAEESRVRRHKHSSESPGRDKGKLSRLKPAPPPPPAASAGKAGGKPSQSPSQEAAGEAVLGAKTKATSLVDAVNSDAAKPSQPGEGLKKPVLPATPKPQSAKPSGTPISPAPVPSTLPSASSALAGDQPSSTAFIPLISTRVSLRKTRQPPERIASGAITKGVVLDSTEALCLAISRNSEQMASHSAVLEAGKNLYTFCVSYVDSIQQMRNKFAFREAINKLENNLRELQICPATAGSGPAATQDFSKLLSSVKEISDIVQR
Chain of Ras and Rab interactor 1/Tyrosine-protein kinase ABL1 (Q13671 whole entry): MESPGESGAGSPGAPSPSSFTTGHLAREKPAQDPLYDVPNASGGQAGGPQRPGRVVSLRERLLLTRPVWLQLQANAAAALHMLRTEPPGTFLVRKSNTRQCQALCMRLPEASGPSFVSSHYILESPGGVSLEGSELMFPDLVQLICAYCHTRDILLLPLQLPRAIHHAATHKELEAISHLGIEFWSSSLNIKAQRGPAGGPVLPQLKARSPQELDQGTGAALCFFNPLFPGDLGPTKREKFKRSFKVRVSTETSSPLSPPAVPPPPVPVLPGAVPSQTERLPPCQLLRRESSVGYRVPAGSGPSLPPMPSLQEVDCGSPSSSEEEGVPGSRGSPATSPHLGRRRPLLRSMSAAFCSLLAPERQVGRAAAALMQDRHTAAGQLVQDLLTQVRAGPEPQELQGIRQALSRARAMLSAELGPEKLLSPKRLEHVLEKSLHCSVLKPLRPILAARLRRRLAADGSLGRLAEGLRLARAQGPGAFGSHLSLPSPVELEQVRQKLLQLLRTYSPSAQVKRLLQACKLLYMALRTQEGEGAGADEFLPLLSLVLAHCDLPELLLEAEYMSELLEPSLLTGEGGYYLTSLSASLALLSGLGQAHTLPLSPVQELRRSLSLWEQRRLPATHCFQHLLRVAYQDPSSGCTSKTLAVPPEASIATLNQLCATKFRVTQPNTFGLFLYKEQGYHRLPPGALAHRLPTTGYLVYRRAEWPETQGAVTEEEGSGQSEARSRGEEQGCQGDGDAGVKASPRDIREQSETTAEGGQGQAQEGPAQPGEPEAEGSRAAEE

Chain of Dual specificity protein kinase CLK1 (P49759 whole entry): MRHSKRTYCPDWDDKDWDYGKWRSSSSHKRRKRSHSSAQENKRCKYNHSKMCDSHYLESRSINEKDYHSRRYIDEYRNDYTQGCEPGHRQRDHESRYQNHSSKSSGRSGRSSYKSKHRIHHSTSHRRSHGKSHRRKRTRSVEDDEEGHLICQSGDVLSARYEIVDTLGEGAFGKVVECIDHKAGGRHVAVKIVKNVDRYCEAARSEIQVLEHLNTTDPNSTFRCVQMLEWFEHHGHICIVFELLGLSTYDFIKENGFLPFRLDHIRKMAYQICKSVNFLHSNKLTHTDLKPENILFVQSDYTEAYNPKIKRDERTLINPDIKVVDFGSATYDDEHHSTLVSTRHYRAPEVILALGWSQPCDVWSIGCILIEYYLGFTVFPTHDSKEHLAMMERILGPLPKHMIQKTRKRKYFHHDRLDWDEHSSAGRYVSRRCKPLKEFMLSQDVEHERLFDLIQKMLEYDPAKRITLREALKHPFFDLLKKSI
Chain of Beta-2 adrenergic receptor (P07550 whole entry): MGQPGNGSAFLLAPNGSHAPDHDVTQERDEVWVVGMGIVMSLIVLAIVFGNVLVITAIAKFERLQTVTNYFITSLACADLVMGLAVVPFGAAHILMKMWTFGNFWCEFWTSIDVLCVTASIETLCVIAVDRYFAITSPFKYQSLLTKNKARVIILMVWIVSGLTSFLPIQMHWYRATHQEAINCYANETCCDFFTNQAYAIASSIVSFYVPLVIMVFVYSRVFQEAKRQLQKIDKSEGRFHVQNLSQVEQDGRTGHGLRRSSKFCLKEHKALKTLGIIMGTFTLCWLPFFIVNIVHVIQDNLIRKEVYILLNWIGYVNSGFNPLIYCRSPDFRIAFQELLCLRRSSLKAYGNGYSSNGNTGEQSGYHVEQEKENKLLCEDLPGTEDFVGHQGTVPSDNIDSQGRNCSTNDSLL

CCN1CCN(Cc2ccc(NC(=O)c3ccc(C)c(NC(=O)N4CCNC4=O)c3)cc2C(F)(F)F)CC1
AC50 [1]: 8.71 µM (active)
AC50 [2]: 2.29 µM (active)

c1ccc2oc(-c3ccc4[nH]cnc4c3)nc2c1
AC50 (HeLa): 69.6 µM (active)

COc1ccc(N2C(=O)c3ccccc3NC23CCCCC3)cc1
AC50 (HeLa): 300 µM (active)

O=C(c1cccc(Cl)c1)N1CCC(C(=O)N2CCN(Cc3ccccc3)CC2)CC1
EC50 [3]: 5.89 µM (active)

O=C(Nc1nc(-c2ccc3c(c2)OCCO3)cs1)c1ccco1
AC50 [1]: 6.45 µM (active)
AC50 [2]: 3.98 µM (active)
EC50 (Streptokinase A): > 150 µM (not active)
EC50 (Streptococcus): > 150 µM (not active)
EC50 [4]: 20.1 µM (active)

COc1cc(CNc2ccc(O)cc2)cc(Br)c1OCc1ccccc1F
CC50 (Vero): > 40 µM (active)

COc1ccccc1OCc1ccc(C(=O)Nc2ccccc2F)cc1
IC50 (Caspase-3): 8.88 µM (active)
IC50 [5]: > 99 µM (inactive)
IC50 [6]: > 99 µM (inactive)

CC(=O)Nc1ccc(NC(=O)C2CCN(C(=O)c3cccs3)CC2)cc1
IC50 [7]: 1.9 µM (active)
